Measured values taken from patent publication US10383909B2, “Use of a plant extract, pharmaceutical compositions and use thereof” (HEBRON FARMACEUTICA PESQUISA, DESENVOLVIMENTO E INOVACAO …, priority 2010, dated 2019).
Where “and” joins values, the source holds several entries; their conditions need not be identical. Identical values can stand only once.

Experiments:
Type in all cases: in vivo, human
[1] = Intensity of gastritis by histopathological examination before and after treatment (Sydney System)
Protocol: (§1) Patients included in the sample performed two esophagogastroduodenoscopy tests (EGD) with biopsy and analysis for Helicobacter pylori. The first test was made before the treatment, and the second, after four weeks (28 days) on medication. The protocol for administration of medications included: ingestion of one (1) the tablet based on Aroeira (about 233.60 mg) twice daily for four weeks (28 days), or the ingestion of 20 mg Omeprazole, two tablets twice daily for the same period. Classification with gradations and intensity of gastritis was based on the Sydney System. For data analysis, we used the Epi Info program, v.3.5.1, and Microsoft Excel 2007. Since they are categorical variables, Odds Ratios were evaluated and significant results were verified through a crude chi-squared test or with a Yates correction, when applicable, and alternatively the Fisher Exact Test when indicated. A Z test was also used to compare proportions when the expected frequencies were greater than or equal to 5. Confidence intervals were calculated for 95% confidence, with significant differences smaller than 5%.

[2] = test system: Helicobacter pylori; experiment: Analysis for Helicobacter pylori in biopsy after treatment; settings: after 28 days
Protocol: as §1, with “period.” for “period. Classification with gradations and intensity of gastritis was based on the Sydney System.”

[3] = Esophagogastroduodenoscopy (EGD) before and after four weeks of treatment: gastritis present or absent; settings: 2nd EGD after 28 days
Source text: as §1, with “To evaluate the efficacy of hydroalcoholic extract of S. terebinthifolius in the form of a medication, 72 volunteer patients of both genders with diagnosed gastritis were selected. Anthropomorphic characteristics, such as age, weight and height were similar. The criteria for inclusion of patients in the sample were aged between 16 and 80 years (mean age was 40 years), with diagnosis of gastritis confirmed by endoscopy and pathological examination, and consent after clarification for study participation. We excluded patients who were treated with proton pump inhibitors, anti-inflammatory non-steroidal, H-2 receptor blockers and/or antacids during the month preceding the study. Patients” for “Patients”

[4] = Patient questionnaire on gastritis symptoms before and after treatment; settings: gastritis patients, oral, four weeks (28 days)
Source text: To evaluate the efficacy of hydroalcoholic extract of S. terebinthifolius in the form of a medication, 72 volunteer patients of both genders with diagnosed gastritis were selected. Anthropomorphic characteristics, such as age, weight and height were similar. The criteria for inclusion of patients in the sample were aged between 16 and 80 years (mean age was 40 years), with diagnosis of gastritis confirmed by endoscopy and pathological examination, and consent after clarification for study participation. We excluded patients who were treated with proton pump inhibitors, anti-inflammatory non-steroidal, H-2 receptor blockers and/or antacids during the month preceding the study.
The sample was randomly divided into two groups:
Group I—38 patients who used the medication based on Aroeira (Schinus terebinthifolius Raddi);
Group II—34 patients who used the drug Omeprazole (control group).
The protocol for administration of medications included: ingestion of one (1) the tablet based on Aroeira (about 233.60 mg) twice daily for four weeks (28 days), or the ingestion of 20 mg Omeprazole, two tablets twice daily for the same period.
For data analysis, we used the Epi Info program, v.3.5.1, and Microsoft Excel 2007. Since they are categorical variables, Odds Ratios were evaluated and significant results were verified through a crude chi-squared test or with a Yates correction, when applicable, and alternatively the Fisher Exact Test when indicated. A Z test was also used to compare proportions when the expected frequencies were greater than or equal to 5. Confidence intervals were calculated for 95% confidence, with significant differences smaller than 5%.
The results were obtained through a questionnaire completed by each patient, under the supervision of a specialist.

[5] = intensity before treatment Mild/Discrete
[6] = intensity before treatment Moderate

Structure (SMILES): COc1ccc2[nH]c([S+]([O-])Cc3ncc(C)c(OC)c3C)nc2c1 (stereo not shown) [Omeprazole]
- Intensity after treatment Mild/Discrete, % [1, 5]: 54.50%
- Intensity after treatment Mild/Discrete, No. of patients [1, 5]: 12
- Intensity after treatment Moderate, % [1, 5]: 45.5%
- Intensity after treatment Moderate, N of patients [1, 5]: 10
- Intensity after treatment Mild/Discrete, % (improvement) [1, 6]: 27.30%
- Intensity after treatment Moderate, % [1, 6]: 72.70%
- Intensity after treatment Moderate, N of patients [1, 6]: 8
- H. pylori Absent after treatment, % (eradication rate) [2]: 9.4% and 9.38%
- H. pylori Absent after treatment, N° of patients [2]: 3
- H. pylori Present after treatment, % [2]: 90.63%
- H. pylori Present after treatment, N° of patients [2]: 29
- Gastritis Absent after treatment, % (disappearance of endoscopic mucosal injury) [3]: 0%
- Gastritis Absent after treatment, N° of patients [3]: 0
- Gastritis Present after treatment, % [3]: 100%
- Gastritis Present after treatment, N° of patients [3]: 34
- Percentage of improvement in symptoms after treatment: Abdominal discomfort relieved with meals [4]: 85.70%
- Percentage of improvement in symptoms after treatment: Frequent epigastric pain [4]: 72.70%
- Percentage of improvement in symptoms after treatment: Heartburn [4]: 71.40%
- Percentage of improvement in symptoms after treatment: Nausea [4]: 72.20%
